{
  "source": "paper PMC9974930",
  "about": "(Journal of medicinal chemistry, 2023)",
  "key": {"LPS-induced sepsis model": {"test_system": "LPS-induced sepsis model", "assay": "LPS-induced sepsis model, survival", "type": "in vivo, C57BL/6 mice", "conditions": "28 hours; LPS 30 mg / kg ip; 5 mg / kg ip at 4 h and 12 h later"}, "[1]": {"test_system": "COX-2, sEH, NOS-2 and VCAM", "assay": "Western blot of inflammatory factors in plasma, LPS-induced sepsis model", "type": "in vivo, C57BL/6 mice", "conditions": "5 mg / kg ip"}, "IL-6, MCP-5 and TNF-α": {"test_system": "IL-6, MCP-5 and TNF-α", "assay": "ELISA of plasma inflammatory factors, LPS-induced sepsis model", "type": "in vivo, C57BL/6 mice", "conditions": "5 mg / kg ip"}, "[2]": {"biological_target": "T1, recombinant human sEH (HsEH) (Homo sapiens, UniProt P34913)", "T1 sequence (P34913 1-555)": "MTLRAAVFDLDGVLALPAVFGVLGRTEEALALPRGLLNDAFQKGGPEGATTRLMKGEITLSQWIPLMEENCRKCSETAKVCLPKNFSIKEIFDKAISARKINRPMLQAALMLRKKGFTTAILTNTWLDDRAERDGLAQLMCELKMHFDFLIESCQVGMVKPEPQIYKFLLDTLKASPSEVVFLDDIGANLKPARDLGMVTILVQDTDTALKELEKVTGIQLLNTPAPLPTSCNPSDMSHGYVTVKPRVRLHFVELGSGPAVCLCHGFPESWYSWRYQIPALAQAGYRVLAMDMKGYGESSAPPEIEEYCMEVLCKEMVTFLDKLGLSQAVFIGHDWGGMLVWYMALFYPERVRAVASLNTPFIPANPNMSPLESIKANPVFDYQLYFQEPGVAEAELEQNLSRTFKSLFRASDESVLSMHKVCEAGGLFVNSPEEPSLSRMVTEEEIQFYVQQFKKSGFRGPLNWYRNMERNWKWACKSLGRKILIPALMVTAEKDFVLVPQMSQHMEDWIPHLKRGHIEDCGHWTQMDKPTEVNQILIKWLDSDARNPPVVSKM", "assay": "biochemical"}, "CFA-induced AIA mice": {"test_system": "CFA-induced AIA mice", "assay": "CFA-induced arthritis", "type": "in vivo, Kunming mice", "conditions": "10 mg / kg ip"}, "[3]": {"assay": "Pharmacokinetic study in vivo"}, "[4]": {"assay": "Microsomal stability in rat liver microsomes"}, "[5]": {"assay": "Microsomal stability in human liver microsomes"}, "murine sEH (MsEH)": {"biological_target": "T2, murine sEH (MsEH) (Mus musculus, UniProt P34914)", "T2 sequence (P34914 1-554)": "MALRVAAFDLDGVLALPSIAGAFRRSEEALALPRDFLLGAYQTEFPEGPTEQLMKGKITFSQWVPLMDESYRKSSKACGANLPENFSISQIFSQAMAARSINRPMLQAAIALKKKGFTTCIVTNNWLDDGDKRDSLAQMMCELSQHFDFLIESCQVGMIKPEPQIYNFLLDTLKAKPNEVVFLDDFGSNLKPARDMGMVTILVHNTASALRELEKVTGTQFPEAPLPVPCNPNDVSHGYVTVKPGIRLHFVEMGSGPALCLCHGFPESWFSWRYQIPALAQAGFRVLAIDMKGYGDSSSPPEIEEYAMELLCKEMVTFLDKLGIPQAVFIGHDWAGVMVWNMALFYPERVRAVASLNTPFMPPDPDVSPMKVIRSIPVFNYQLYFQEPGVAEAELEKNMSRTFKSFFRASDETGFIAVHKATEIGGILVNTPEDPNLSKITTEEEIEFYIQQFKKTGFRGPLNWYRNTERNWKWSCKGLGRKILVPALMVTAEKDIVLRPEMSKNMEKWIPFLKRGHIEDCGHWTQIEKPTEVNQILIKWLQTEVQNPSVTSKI", "assay": "sEH inhibition, fluorescent-based assay with PHOME substrate", "type": "biochemical"}, "[6]": {"conditions": "both, Sprague-Dawley, rat, in vivo, iv, 10 mg/kg"}},
  "data": [
    {"compound": "C[C@@H]1C[C@H]2[C@@H]3CCC4=CC(=O)C=C[C@]4(C)[C@@]3(F)[C@@H](O)C[C@]2(C)[C@@]1(O)C(=O)CO", "note": "[dexamethasone, reference compound]", "values": [
      {"measurement": "survival rate", "setting": "LPS-induced sepsis model", "result": "all of the mice in the dexamethasone group died"},
      {"measurement": "COX-2 expression levels", "setting": "[1]", "result": "higher than in the control group"},
      {"measurement": "IL-6 levels", "setting": "IL-6, MCP-5 and TNF-α", "result": "significant reduction in IL-6 levels"},
      {"measurement": "TNF-α levels", "setting": "IL-6, MCP-5 and TNF-α", "result": "considerably lowered TNF-α levels"}
    ]},
    {"compound": "CCC(=O)N1CCCN(C(=O)C2CCCN(Cc3ccc(NC(=O)N[C@@]45C[C@@H]6C[C@@](C)(C[C@@](C)(C6)C4)C5)c(F)c3)C2)CC1", "note": "(stereo partly drawn) [G1, 1-((1r,3R,5S,7r)-3,5-Dimethyladamantan-1-yl)-3-(2-fluoro-4-((3-(4-propionyl-1,4-diazepane-1-carbonyl)piperidin-1-yl)methyl)phenyl)urea]", "values": [
      {"measurement": "LLE (ligand lipophilicity efficiency)", "setting": "[2]", "result": 7.553},
      {"measurement": "effect on paw swelling rate, in words", "setting": "CFA-induced AIA mice", "result": "significantly reduced the swelling rate of mouse paw thickness"},
      {"measurement": "increase of pain valve (pain threshold, hot plate)", "setting": "CFA-induced AIA mice", "result": 70.10, "unit": "%"},
      {"measurement": "reduced foot swelling, thickness", "setting": "CFA-induced AIA mice", "result": 21.4, "unit": "%"},
      {"measurement": "reduced foot swelling, width", "setting": "CFA-induced AIA mice", "result": 6.98, "unit": "%"},
      {"measurement": "body weight change", "setting": "CFA-induced AIA mice; 24 h of drug treatment", "result": "increase in body weight"},
      {"measurement": "effect on pain threshold, in words", "setting": "CFA-induced AIA mice; hot plate", "result": "faster onset of analgesia than celecoxib"},
      {"measurement": "time after administration at which analgesic effect began", "setting": "CFA-induced AIA mice; hot plate", "result": 10, "unit": "min"},
      {"measurement": "time of peak analgesic effect", "setting": "CFA-induced AIA mice; hot plate", "result": 2, "unit": "h"},
      {"measurement": "COX-2 expression levels", "setting": "[1]", "result": "higher than in the control group"},
      {"measurement": "NOS-2 expression", "setting": "[1]", "result": "reduced NOS-2 expression"},
      {"measurement": "expression of sEH", "setting": "[1]; compared to the model group", "result": "significantly reduced the expression of sEH"},
      {"measurement": "vascular cell adhesion molecule (VCAM)", "setting": "[1]; compared to the solvent group", "result": "little change"},
      {"measurement": "IL-6 levels", "setting": "IL-6, MCP-5 and TNF-α", "result": "significant reduction in IL-6 levels"},
      {"measurement": "TNF-α levels", "setting": "IL-6, MCP-5 and TNF-α", "result": "considerably lowered TNF-α levels"},
      {"measurement": "effect of lowering MCP-5", "setting": "IL-6, MCP-5 and TNF-α", "result": "lower than dexamethasone"},
      {"measurement": "AUC(0-inf)", "setting": "[3]; [6]", "result": 0.0115, "unit": "µM·h"},
      {"measurement": "clearance", "setting": "[3]; [6]", "result": 4.83, "unit": "mL/min/kg"},
      {"measurement": "AUC(0-inf)", "setting": "[3]; both, Sprague-Dawley, rat, in vivo, po, 50 mg/kg", "result": 0.0102, "unit": "µM·h"},
      {"measurement": "CL", "setting": "[3]; rats, po 50 mg / kg", "result": 28.3, "unit": "mL/min/kg"},
      {"measurement": "VZ", "setting": "[3]; rats, po 50 mg / kg", "result": 13.12, "unit": "L/kg"},
      {"measurement": "Mean concentration of G1 in microsomal buffer", "setting": "[4]; time 0", "result": 100, "unit": "µg/mL"},
      {"measurement": "Mean concentration of G1 in microsomal buffer", "setting": "[4]; time 10", "result": 75.04, "unit": "µg/mL"},
      {"measurement": "Mean concentration of G1 in microsomal buffer", "setting": "[4]; time 30", "result": 66.63, "unit": "µg/mL"},
      {"measurement": "Mean concentration of G1 in microsomal buffer", "setting": "[4]; time 60", "result": 62.01, "unit": "µg/mL"},
      {"measurement": "Mean concentration of G1 in microsomal buffer", "setting": "[5]; time 0", "result": 100, "unit": "µg/mL"},
      {"measurement": "Mean concentration of G1 in microsomal buffer", "setting": "[5]; time 10", "result": 81.12, "unit": "µg/mL"},
      {"measurement": "Mean concentration of G1 in microsomal buffer", "setting": "[5]; time 30", "result": 74.76, "unit": "µg/mL"},
      {"measurement": "Mean concentration of G1 in microsomal buffer", "setting": "[5]; time 60", "result": 68.78, "unit": "µg/mL"}
    ]},
    {"compound": "C[C@]12C[C@@H]3C[C@](C)(C1)C[C@@](NC(=O)Nc1ccc(C(=O)N4CCC(C(=O)N5CCN(CCO)CC5)CC4)cc1F)(C3)C2", "note": "[A4, 1-((1r,3R,5S,7r)-3,5-Dimethyladamantan-1-yl)-3-(2-fluoro-4-(4-(4-(2-hydroxyethyl)piperazine-1-carbonyl)piperidine-1-carbonyl)phenyl)urea]", "values": [
      {"measurement": "IC50", "setting": "[2]", "result": 12.5, "unit": "nM"},
      {"measurement": "IC50", "setting": "murine sEH (MsEH)", "result": 0.32, "unit": "nM"}
    ]}
  ]
}
